Experiments:
bovine adrenal CYP11B = target: T1, bovine adrenal CYP11B (Bos taurus, UniProt P15150); test: Percent inhibition of bovine CYP11B (adrenal mitochondria); settings: corticosterone substrate 200 μM, inhibitor 1 μM; for inhibition at 1 µM: read-out: % Inhibition bovine bCYP11B, bovine adrenal mitochondria, 1 mg/ml protein; for % Inhibition bovine bCYP11B: bovine adrenal mitochondria, 1 mg/ml protein
T1 sequence (P15150 25-503): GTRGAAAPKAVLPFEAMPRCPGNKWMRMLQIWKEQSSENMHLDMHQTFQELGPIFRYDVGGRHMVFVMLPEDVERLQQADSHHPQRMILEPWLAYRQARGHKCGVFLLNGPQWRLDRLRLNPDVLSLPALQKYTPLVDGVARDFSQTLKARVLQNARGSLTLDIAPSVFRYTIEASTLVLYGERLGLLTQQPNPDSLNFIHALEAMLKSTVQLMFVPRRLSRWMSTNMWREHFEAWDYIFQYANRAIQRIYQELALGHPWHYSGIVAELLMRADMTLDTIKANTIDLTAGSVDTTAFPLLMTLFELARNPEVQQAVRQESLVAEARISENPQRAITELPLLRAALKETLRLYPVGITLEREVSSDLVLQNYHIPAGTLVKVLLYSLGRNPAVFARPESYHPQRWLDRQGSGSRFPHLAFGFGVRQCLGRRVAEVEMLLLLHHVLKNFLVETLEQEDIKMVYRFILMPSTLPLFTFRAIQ
Procedure: Bovine adrenal glands obtained freshly after slaughtering were stored in ice cold Tris-sucrose buffer (0.25 M sucrose, 0.05 M Tris; pH 7.4) until processed. After removing the appending adipose tissue, the adrenal medulla was carefully separated from the adrenal cortex using scissors. The pieces of adrenal cortex were coarsely comminuted with scissors, washed with Tris-sucrose buffer, weighed and finely comminuted in the above buffer (2 ml per g of tissue) with a hand mixer. Thereafter, the tissue was homogenized with an Ultra-Turrax mixer. For separating coarse cell debris and the nuclei, the homogenizate was centrifuged twice for 15 min at 900 g and 4° C. The supernatant was subsequently centrifuged for 35 min at 11,000 g for recovering the mitochondrial fraction. For purifying the mitochondrial fraction, the precipitate was resuspended in Tri-sucrose buffer and again centrifuged at 11,000 g for 35 min. This washing step was performed two times in total. After the last centrifugation, the pellet was resuspended in Tris-sucrose buffer containing 0.001 M EDTA and frozen at −70° C.
The substrate corticosterone was dissolved in methanol and diluted with Tris buffer to a final concentration of 200 μM. The inhibitors were also dissolved in methanol and diluted with buffer to a final concentration of 1 μM. […] Corticosterone (200 μM) was incubated with inhibitor (1 μM) and mitochondrial enzyme (0.5 mg/0.5 ml) with the addition of a regenerating system consisting of NADP^+ (1 mM), glucose-6-phosphate (7 mM) and glucose-6-Phosphate dehydrogenase (1 IU/0.5 ml). Up to 5 inhibitors per test could be incubated in duplicate. […] After preincubation for 5 minutes (30° C.; water bath), the reaction was started by adding mitochondrial suspension. […] The blind values were admixed with 250 μl of HCl before the enzyme was pipetted in. The steroids were separated off by shaking with 1 ml of ethyl acetate (10 min). After centrifugation (15,000 g, 10 min), 900 μl of the organic phase was shaken with 250 μl 1 N NaOH (10 min), and 800 μl of supernatant was again washed with 250 μl of buffer. […] 18-OH-corticosterone (retention time: 10 min) and corticosterone (retention time: 21 min) were separated. The height of the 18-OH-corticosterone peak was used for evaluation. The percent inhibition of the 18-hydroxylation of corticosterone by the inhibitors was based on the mediums of the control incubation, taking the blind values into account.

human CYP11B2 = target: T2, human CYP11B2 (Homo sapiens, UniProt P19099); test: V79 MZh 11B2 cells inhibition test; assay type: cell-based; design: expressed in transfected cells; host or cells: V79 MZh11B2 (Chinese hamster lung fibroblasts); settings: for IC50: hamster fibroblasts which express human CYP11B2, deoxycorticosterone substrate 100 nM, read-out: IC50 V79 11B2 hCYP11B2
T2 sequence (P19099 25-503): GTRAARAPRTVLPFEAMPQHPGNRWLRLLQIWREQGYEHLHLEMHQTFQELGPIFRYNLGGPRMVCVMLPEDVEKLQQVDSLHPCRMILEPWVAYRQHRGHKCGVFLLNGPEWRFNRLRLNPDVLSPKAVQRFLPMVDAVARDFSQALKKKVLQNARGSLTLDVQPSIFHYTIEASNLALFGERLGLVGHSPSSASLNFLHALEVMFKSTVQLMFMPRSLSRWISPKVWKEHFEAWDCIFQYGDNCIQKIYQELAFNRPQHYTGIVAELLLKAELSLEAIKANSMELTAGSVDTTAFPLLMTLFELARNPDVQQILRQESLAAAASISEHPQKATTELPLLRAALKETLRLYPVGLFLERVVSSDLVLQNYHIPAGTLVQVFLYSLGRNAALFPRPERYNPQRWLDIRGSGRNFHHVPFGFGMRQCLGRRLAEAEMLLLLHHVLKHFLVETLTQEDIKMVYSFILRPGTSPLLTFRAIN
Procedure: Both cell lines were cultured in DMEM^+ containing […] and the antibiotics penicillin and streptomycin (10%) for protection from bacterial contamination. The cells were passaged every 2-3 days after treatment with trypsin/EDTA because the doubling rate was 1-2 days depending on the number of cells. […] When there was further need, freshly thawed cells were employed.
Thereafter, the plate was stored at 37° C. and […] in a CO2 incubator. The V79 MZh 11B1 cells were incubated for 120 min, and the V79 MZh 11B2 cells were incubated for 40 min. Controls without inhibitor were treated in the same way. The enzyme reactions were quenched by extracting the supernatant with 500 μl of EtOAc. The samples were centrifuged (10,000 g, 2 min), the solvent was removed and evaporated.
For V79 MZh11B2, the conversion rate was obtained in accordance with equation 3: […]
It was calculated by determining the percent inhibition for at least 3 different inhibitor concentrations, which must all be in the linear range of the sigmoidal IC50 curve (log C/% inhibition).
The calculation was effected by linear regression. The values determined were used only if they formed a straight line with a reliability of […].
The plate was developed twice with the mobile solvent chloroform:methanol:water (300:20:1). Unlabeled 11-deoxycorticosterone and corticosterone were applied as a reference for the CYP11B1 reaction. For the CYP11B2 reaction, 11-deoxycorticosterone, corticosterone, 18-hydroxycorticosterone and aldosterone were used as references. The detection of the unlabeled references was effected at 260 nm. Subsequently, imaging plates (BAS MS2340, for ^14C samples, Raytest, Straubenhardt, Germany) were exposed to the HPTLC plates for 48 h. The imaging plates were scanned with the phosphoimager system Fuji FLA 3000 (Raytest, Straubenhardt, Germany), and the steroids were quantified.

| Molecule | melting point [°C] | inhibition at 1 µM (bovine adrenal CYP11B) [%] | IC50 (human CYP11B2) [nM] | Selectivity factor IC50 (CYP11B1)/IC50 (CYP11B2) (human CYP11B2; V79 cells expressing human CYP11B1 or CYP11B2) | % Inhibition bovine bCYP11B (bovine adrenal CYP11B) [%] |
| --- | --- | --- | --- | --- | --- |
| Cl.Clc1ccc2c(c1)CC/C2=C\c1cnc[nH]1 [Compound 48a, 5-[(E)-(5-Chloro-2,3-dihydro-1H-indene-1-ylidene)methyl]-1H-imidazolium chloride] | 238 | 45 |  |  |  |
| Brc1ccc2c(c1)CC/C2=C\c1cnc[nH]1.Cl [Compound 49a, 5-[(E)-(5-Bromo-2,3-dihydro-1H-indene-1-ylidene)methyl]-1H-imidazolium chloride] | 228 | 63 | 92.8 |  |  |
| 5-[(Z)-(5-Chloro-2,3-dihydro-1H-indene-1-ylidene)methyl]-1H-imidazolium oxalate [Compound 48b] |  |  |  | five times | 87 |
| C(=C1/CCCc2ccccc21)/c1cnc[nH]1 [Compound 41a, 5-[(E)-3,4-Dihydronaphth-1(2H)-ylidenemethyl]-1H-imidazole] | 136 to 138 | 40 |  |  |  |
| 5-[(Z)-(5-Bromo-2,3-dihydro-1H-indene-1-ylidene)methyl]-1H-imidazolium oxalate [Compound 49b] |  |  | 10.3 |  | 88 |

Source: patent publication US20090105278A1, “Selective inhibitors of human corticosteroid syntheses” (Universitat Des Saarlandes, priority 2004, published 2009)
